What was measured:
[1] = test system: antibodies in sera from SARS patients (sera 1a, 1b, 2, 6, 37, 62, London, SARS-yellow, SARS-green); format: binding, human; set-up: Binding of serum 6 to linear peptides of protein X1 of SARS-CoV Urbani / Binding of serum 37 to linear peptides of protein X1 of SARS-CoV Urbani / Binding of serum 6 to looped/cyclic peptide (PEPSCAN-ELISA) / Binding of serum 37 to looped/cyclic peptide (PEPSCAN-ELISA) / Binding of serum 37 to looped/cyclic peptides of protein X1 of SARS-CoV Urbani / Binding of serum 6 to linear peptides of protein X2 / Binding of serum 37 to linear peptides of protein X2 / Binding of serum 37 to looped/cyclic peptides of protein X2 of SARS-CoV Urbani / Binding of serum 6 to linear peptides of protein M of SARS-CoV Urbani / Binding of serum 37 to linear peptides of protein M of SARS-CoV Urbani / Binding of serum 6 to looped/cyclic peptides of protein M of SARS-CoV Urbani / Binding of serum 37 to looped/cyclic peptides of protein M of SARS-CoV Urbani / Binding of serum 6 to linear peptides of protein X3 of SARS-CoV Urbani / Binding of serum 37 to linear peptides of protein X3 of SARS-CoV Urbani / Binding of serum 37 to looped/cyclic peptides of protein X3 of SARS-CoV Urbani / Binding of serum 6 to linear peptides of protein X4 of SARS-CoV Urbani / Binding of serum 37 to linear peptides of protein X4 of SARS-CoV Urbani / Binding of serum 37 to looped/cyclic peptides of protein X4 of SARS-CoV Urbani / Binding of serum 6 to linear peptides of protein X5 of SARS-CoV Urbani / Binding of serum 37 to linear peptides of protein X5 of SARS-CoV Urbani / Binding of serum 37 to looped/cyclic peptides of protein X5 of SARS-CoV Urbani / Binding of serum 6 to linear peptides of protein N of SARS-CoV Urbani / Binding of serum 37 to linear peptides of protein N of SARS-CoV Urbani / Binding of serum 6 to linear peptide (PEPSCAN-ELISA) / Binding of serum 1a to looped/cyclic peptides of protein N of SARS-CoV Urbani / Binding of serum 1b to looped/cyclic peptides of protein N of SARS-CoV Urbani / Binding of serum 2 to looped/cyclic peptides of protein N of SARS-CoV Urbani / Binding of serum 6 to looped/cyclic peptides of protein N of SARS-CoV Urbani / Binding of serum 37 to looped/cyclic peptides of protein N of SARS-CoV Urbani / Binding of serum 62 to looped/cyclic peptides of protein N of SARS-CoV Urbani / Binding of serum London to looped/cyclic peptides of protein N of SARS-CoV Urbani / Binding of serum SARS-green to looped/cyclic peptides of protein N of SARS-CoV Urbani: unit not given here
[2] = test system: control sera (pooled serum of ten healthy LUMC hospital workers; commercial negative donor pooled serum from the Dutch bloodbank); format: binding, human; set-up: Binding of Control serum LUMC to linear peptides / Binding of Control serum Blood-bank to linear peptides / Binding of Control serum LUMC to looped peptides / Binding of Control Serum Blood-Bank to Looped peptides / Binding of Control serum LUMC to linear peptides of the protein M of SARS-CoV Urbani / Binding of Control serum Blood-bank to linear peptides of the protein M of SARS-CoV Urbani / Binding of Control serum LUMC to looped peptides of the protein M of SARS-CoV Urbani / Binding of Control Serum Blood-Bank to Looped peptides of the protein M of SARS-CoV Urbani: unit not given here
[3] = test system: rabbit serum obtained by immunizing a rabbit with the SARS-CoV strain Frankfurt 1; format: binding; set-up: Binding of a rabbit serum to linear peptides / Binding of a rabbit serum to looped peptides / Rabbit serum linear peptides / Rabbit serum looped peptides / Binding of a rabbit serum to linear peptides of protein N of SARS-CoV Urbani (Rabbit serum linear peptides) / Binding of a rabbit serum to looped/cyclic peptides of protein N of SARS-CoV Urbani (Rabbit serum looped peptides): unit not given here

Sequence | Binding of serum 1a to linear peptides of protein X5 of SARS-CoV Urbani [1] | Binding of serum 1a to looped/cyclic peptides of protein X5 of SARS-CoV Urbani [1] | Binding of serum 1b to linear peptides of protein X5 of SARS-CoV Urbani [1] | Binding of serum 1b to looped/cyclic peptides of protein X5 of SARS-CoV Urbani [1] | Binding of serum 2 to linear peptides of protein X5 of SARS-CoV Urbani [1] | Binding of serum 2 to looped/cyclic peptides of protein X5 of SARS-CoV Urbani [1] | Binding of serum 6 to linear peptides of protein X5 of SARS-CoV Urbani [1] | Binding of serum 6 to looped/cyclic peptides of protein X5 of SARS-CoV Urbani [1] | Binding of serum 37 to linear peptides of protein X5 of SARS-CoV Urbani [1] | Binding of serum 37 to looped/cyclic peptides of protein X5 of SARS-CoV Urbani [1] | Binding of serum 62 to linear peptides of protein X5 of SARS-CoV Urbani [1] | Binding of serum 62 to looped/cyclic peptides of protein X5 of SARS-CoV Urbani [1] | Binding of serum London to linear peptides of protein X5 of SARS-CoV Urbani [1] | Binding of serum London to looped/cyclic peptides of protein X5 of SARS-CoV Urbani [1] | Binding of Control Serum Blood-Bank to Looped peptides [2] | Binding of Control serum Blood-bank to linear peptides [2] | Binding of Control serum LUMC to linear peptides [2] | Binding of Control serum LUMC to looped peptides [2] | Rabbit serum linear peptides [3] | Rabbit serum looped peptides [3] | other results
YSTAWLCALGKVLPF | 0.7 | 0.5 | 0.6 | 0.3 | 0.7 | 0.5 | 0.6 | 0.6 | 0.6 | 0.5 | 0.8 | 0.8 | 0.8 | 0.4 | 0.4 | 0.8 | 0.5 | 0.5 | 0.7 | 1.0 | Binding of serum SARS-green to linear peptides of protein X5 of SARS-CoV Urbani [1]: 0.5; Binding of serum SARS-green to looped/cyclic peptides of protein X5 of SARS-CoV Urbani [1]: 0.2; Binding of serum SARS-yellow to linear peptides of protein X5 of SARS-CoV Urbani [1]: 0.4; Binding of serum SARS-yellow to looped/cyclic peptides of protein X5 of SARS-CoV Urbani [1]: 0.9
QLALYKGFQFICNLL | – | – | – | – | – | – | – | – | – | – | – | – | – | – | 0.5 | 0.6 | 0.5 | 0.6 | – | – | Binding of serum 1a to looped/cyclic peptide (PEPSCAN-ELISA) [1]: 0.5; Binding of serum 1b to looped/cyclic peptide (PEPSCAN-ELISA) [1]: 0.4; Binding of serum 2 to looped/cyclic peptide (PEPSCAN-ELISA) [1]: 0.4; Binding of serum 6 to looped/cyclic peptide (PEPSCAN-ELISA) [1]: 1.2; Binding of serum 37 to looped/cyclic peptide (PEPSCAN-ELISA) [1]: 0.5; Binding of serum 62 to looped/cyclic peptide (PEPSCAN-ELISA) [1]: 0.5; Binding of serum London to looped/cyclic peptide (PEPSCAN-ELISA) [1]: 1.5; Binding of serum SARS-green to looped/cyclic peptide (PEPSCAN-ELISA) [1]: 0.3; Binding of serum SARS-yellow to looped/cyclic peptide (PEPSCAN-ELISA) [1]: 0.5; Binding of a rabbit serum to linear peptides [3]: 0.3; Binding of a rabbit serum to looped peptides [3]: 0.6
LPFHRWHTMVQTCTP | 0.8 | 0.5 | 0.7 | 0.4 | 0.9 | 0.5 | 0.6 | 0.3 | 0.8 | 0.4 | 0.8 | 0.3 | 0.9 | 0.2 | 0.5 | 0.6 | 0.5 | 0.4 | 0.5 | 0.3 | Binding of serum SARS-green to linear peptides of protein X5 of SARS-CoV Urbani [1]: 0.6; Binding of serum SARS-green to looped/cyclic peptides of protein X5 of SARS-CoV Urbani [1]: 0.3; Binding of serum SARS-yellow to linear peptides of protein X5 of SARS-CoV Urbani [1]: 0.4; Binding of serum SARS-yellow to looped/cyclic peptides of protein X5 of SARS-CoV Urbani [1]: 0.2
PFGWLVIGVAFLAVF | – | – | – | – | – | – | – | – | – | – | – | – | – | – | 0.5 | 0.5 | 0.5 | 0.5 | – | – | Binding of serum 1a to linear peptides of protein X1 of SARS-CoV Urbani [1]: 0.7; Binding of serum 1a to looped/cyclic peptide (PEPSCAN-ELISA) [1]: 0.5; Binding of serum 1b to linear peptides of protein X1 of SARS-CoV Urbani [1]: 0.5; Binding of serum 1b to looped/cyclic peptide (PEPSCAN-ELISA) [1]: 0.4; Binding of serum 2 to linear peptides of protein X1 of SARS-CoV Urbani [1]: 0.5; Binding of serum 2 to looped/cyclic peptide (PEPSCAN-ELISA) [1]: 0.5; Binding of serum 6 to linear peptides of protein X1 of SARS-CoV Urbani [1]: 0.4; Binding of serum 6 to looped/cyclic peptide (PEPSCAN-ELISA) [1]: 0.2; Binding of serum 37 to linear peptides of protein X1 of SARS-CoV Urbani [1]: 0.7; Binding of serum 37 to looped/cyclic peptide (PEPSCAN-ELISA) [1]: 0.5; Binding of serum 62 to linear peptides of protein X1 of SARS-CoV Urbani [1]: 0.6; Binding of serum 62 to looped/cyclic peptide (PEPSCAN-ELISA) [1]: 0.5; Binding of serum London to linear peptides of protein X1 of SARS-CoV Urbani [1]: 0.3; Binding of serum London to looped/cyclic peptide (PEPSCAN-ELISA) [1]: 0.2; Binding of serum SARS-green to linear peptides of protein X1 of SARS-CoV Urbani [1]: 0.3; Binding of serum SARS-green to looped/cyclic peptide (PEPSCAN-ELISA) [1]: 0.4; Binding of serum SARS-yellow to linear peptides of protein X1 of SARS-CoV Urbani [1]: 0.7; Binding of serum SARS-yellow to looped/cyclic peptide (PEPSCAN-ELISA) [1]: 0.5; Binding of a rabbit serum to linear peptides [3]: 1.1; Binding of a rabbit serum to looped peptides [3]: 0.5
ALIARCWYLHEGHQT | 0.6 | 0.6 | 0.5 | 0.1 | 0.6 | 0.5 | 0.5 | 0.3 | 0.7 | 0.4 | 0.7 | 0.4 | 0.6 | 0.1 | 0.4 | 0.6 | 0.4 | 0.1 | 0.6 | 0.0 | Binding of serum SARS-green to linear peptides of protein X5 of SARS-CoV Urbani [1]: 0.7; Binding of serum SARS-green to looped/cyclic peptides of protein X5 of SARS-CoV Urbani [1]: 0.0; Binding of serum SARS-yellow to linear peptides of protein X5 of SARS-CoV Urbani [1]: 0.2; Binding of serum SARS-yellow to looped/cyclic peptides of protein X5 of SARS-CoV Urbani [1]: 0.0
MWLSYFVASFRLFAR | – | – | – | – | – | – | – | – | – | – | – | – | – | – | – | – | – | – | 0.4 | 0.5 | Binding of serum 1a to linear peptides of protein M of SARS-CoV Urbani [1]: 0.6; Binding of serum 1b to linear peptides of protein M of SARS-CoV Urbani [1]: 0.3; Binding of serum 2 to linear peptides of protein M of SARS-CoV Urbani [1]: 0.5; Binding of serum 6 to linear peptides of protein M of SARS-CoV Urbani [1]: 0.3; Binding of serum 37 to linear peptides of protein M of SARS-CoV Urbani [1]: 0.6; Binding of serum 62 to linear peptides of protein M of SARS-CoV Urbani [1]: 0.7; Binding of serum London to linear peptides of protein M of SARS-CoV Urbani [1]: 0.3; Binding of serum SARS-green to linear peptides of protein M of SARS-CoV Urbani [1]: 0.2; Binding of serum SARS-yellow to linear peptides of protein M of SARS-CoV Urbani [1]: 0.1; Recognition of the peptide by sera of SARS-CoV infected individuals, and form (linear, looped/cyclic) in which it is recognized [1]: recognized in looped/cyclic form; Binding of Control Serum Blood-Bank to Looped peptides of the protein M of SARS-CoV Urbani [2]: 0.7; Binding of Control serum Blood-bank to linear peptides of the protein M of SARS-CoV Urbani [2]: 0.5; Binding of Control serum LUMC to linear peptides of the protein M of SARS-CoV Urbani [2]: 0.2; Binding of Control serum LUMC to looped peptides of the protein M of SARS-CoV Urbani [2]: 0.7

— patent US20070128217A1 (priority 2003, published 2007)
